Measurements from patent US20230047788A1, “COMPOSITIONS COMPRISING 5-CHOLESTEN-3, 25-DIOL, 3-SULFATE (25HC3S) OR PHARMACEUTICALLY ACCEPTABLE SALT THEREOF AND AT LEAST ONE CYCLIC OLIGOSACCHARIDE” (Virginia Commonwealth University, priority 2016, published 2023).

Legend:
[1] = human, in vivo
Method: This example describes a randomized, double-blind, placebo-controlled, safety and pharmacokinetic study of a parenteral formulation of 25HC3S. The study involved the administration of 25HC3S sodium salt to healthy subjects via intramuscular injections (IM) as i) single ascending doses (SAD) in the range of 30-300 mg and as ii) a multiple ascending dose (MAD) study using multiple IM doses of 150 mg administered daily for 5 days (see Table 13). All subjects were male, with an age range of 19-36 years.
In Part A of the study (SAD), a parenteral dose of 25HC3S or matching placebo was administered intramuscularly (IM) to cohorts of 6 healthy subjects (4 randomized to 25HC3S and two randomized to matching placebo on a double-blind basis). The initial dose was 30 mg and subsequent cohorts of 6 different subjects received doses of 90, 150, and 300 mg of 25HC3S. A total of 16 subjects received 25HC3S and 8 received placebo in Part A. In Part B (MAD), a parenteral dose of 150 mg 25HC3S or matching placebo was administered IM once daily for 5 days, altering injection sites, to a single cohort of 10 healthy subjects (8 randomized to 25HC3S and two randomized to matching placebo on a double-blind basis; see Table 14).
Safety assessments included periodic monitoring of routine vital signs, safety laboratory tests and 12 lead ECG collection. Subjects completed a screening phase, treatment and an end-of-study visit. Dose escalation to the next dose level in Part I and Part II of the study was undertaken following review of the preceding dose results.
Pain intensity (measured on a 0-10 numeric rating scale) was assessed after each injection, and the injection sites were examined for tenderness, redness, bruising, swelling and induration at specified time points after injection.

[2] = test system: hepatic apoptosis-related genes; assay: Hepatic gene expression by RT2 Profiler PCR Array in APAP overdosed mice; assay type: in vivo, C57BL/6J mice; settings: liver, APAP 350 mg/kg mice, 24 h
Method: (§1) A composition comprising 25 mg/kg of 25HC3S sodium salt in vehicle was administered intravenously to the experimental mice 0.5 hours after APAP administration. Mortality was monitored in the high dose mice. In the low dose mice, the liver function markers aspartate aminotransferase (AST), alanine aminotransferase (ALT), alkaline phosphatase (ALK) and lactate dehydrogenase (LDH), were measured in serum. Impacts on gene expression were determined by Quantitative Real-time PCR. Membrane potentials were measured using JC1 staining and flow cytometry.
Changes in gene regulation in low dose mice 24 hours after the administration of vehicle and vehicle plus 25HC3S were investigated. The 12-week-old male C57BL/6J mice had received 350 mg/kg APAP via intraperitoneal injection and 30 min later received 7.6% glucose/H2O (C) or vehicle (20% PG/4% HCD/7.6% glucose, P) or 25HC3S (3S). Twenty four hours following APAP injection, liver tissue was harvested and total mRNA was extracted and analyzed using an RT^2 Profiler™ PCR Array assay. The listed genes are involved in apoptosis and/or immune system regulation.

[3] = Solubility of 25HC3S in 10 mM sodium phosphate buffer pH 7.6 with HPbCD at 5, 15 and 25°C; assay type: physicochemical
Method: A total of five suspensions of 25HC3S were prepared in 10 mM sodium phosphate buffer at pH 7.6 containing 0, 50, 100, 250 and 400 mg/mL HPbCD. The suspensions were initially sonicated and then stirred. Each suspension (40 mL for the suspension without HPbCD and 20 mL for the remaining suspensions) was then equally divided into 3 vials and stored in 5° C., 15° C. and 25° C./60% relative humidity (RH) stability chambers.
Each suspension was stirred constantly in the stability chambers by a small spin bar and electronic stirrer. At day 1 and day 3, half of each suspension (approximately 6 mL for the sample without HPbCD and 3 mL for the rest of the suspensions with HPbCD) was withdrawn from the vial with a 3 or 5 mL disposable syringe. A syringe filter was then attached to the syringe for filtration of the suspensions. To minimize sample temperature changes during filtration, the syringe and filter were equilibrated at the respective stability chamber temperatures before their use. Approximately 3 mL of the filtrate for the sample without HPbCD and 1 mL of the filtrate for the remaining suspensions in HPbCD were discarded to ensure that the filter membrane was sufficiently saturated with 25HC3S to prevent absorption of the drug from the remaining filtrate. Then approximately 0.5 mL to 1.5 mL of filtrate was collected for HPLC analysis. At day 3, the remaining filtered portions were measured for pH. Reverse phase HPLC was used for measuring the concentration of 25HC3S in the solubility samples.

mice overdosed with APAP = assay: Mortality in mice overdosed with APAP (600 mg/kg); assay type: in vivo, C57BL/6J mice; settings: APAP 600 mg/kg ip; 25 mg/kg 25HC3S iv 0.5 hours after APAP; 5 days after overdose
Method: The ability of 25HC3S to treat symptoms of APAP overdose was examined. 12-week-old male C57BL/6J mice were fasted overnight and injected (intraperitoneally) with APAP: 600 mg/kg (high dose) for mortality studies or 350 mg/kg (low dose) for liver function and gene studies. Control mice received only vehicle (20% (v/v) a propylene glycol, 4% (w/v) cyclodextrin (powdered hydroxypropyl beta cyclodextrin in sterile 10% (w/v) glucose.
as §1

With C[C@H](CCCC(C)(C)O)[C@H]1CC[C@H]2[C@@H]3CC=C4C[C@@H](OS(=O)(=O)[O-])CC[C@]4(C)[C@H]3CC[C@]12C.[Na+] [25HC3S, 5-cholesten-3, 25-diol, 3-sulfate] the “first time point with detectable drug levels” value [1] was 0.5 h, the “mean pain intensity (0-10 numeric rating scale)” value [1] was 0.8-3.5 and the “time by which pain had resolved after injection” value [1] was ≤ 1 h. For the same compound, the “time of maximal pain intensity after injection” value [1] was 5 to 10 min, the “Cd40 (NM_011611) gene expression, Fold vs P” value ([2]; vs P (vehicle) group) was −2.7 Fold and the “Fasl (NM_010177) gene expression, Fold vs P” value ([2]; vs P (vehicle) group) was −2.6 Fold. For the same compound, the “Gadd45a (NM_007836) gene expression, Fold vs P” value ([2]; vs P (vehicle) group) was −10.9 Fold, the “Nol3 (NM_030152) gene expression, Fold vs P” value ([2]; vs P (vehicle) group) was 3.6 Fold and the “Pvr (NM_027514) gene expression, Fold vs P” value ([2]; vs P (vehicle) group) was −3.3 Fold. For the same compound, the “Tnf (NM_013693) gene expression, Fold vs P” value ([2]; vs P (vehicle) group) was −2.4 Fold, the “Apaf1 (NM_009741) gene expression, Fold vs C” value ([2]; vs control (C) group) was −2.2 Fold and the “Cd40 (NM_011611) gene expression, Fold vs C” value ([2]; vs control (C) group) was −2.1 Fold. The “Fasl (NM_010177) gene expression, Fold vs C” value ([2]; vs control (C) group) was −2.1 Fold, the “Gadd45a (NM_007836) gene expression, Fold vs C” value ([2]; vs control (C) group) was −9.3 Fold and the “Nol3 (NM_030152) gene expression, Fold vs C” value ([2]; vs control (C) group) was 5.3 Fold. For the same compound, the “Pvr (NM_027514) gene expression, Fold vs C” value ([2]; vs control (C) group) was −3.9 Fold, the “Tnfrsf11b (NM_008764) gene expression, Fold vs C” value ([2]; vs control (C) group) was −2.9 Fold and the “pH of Filtrate Day 3” value ([3]; 5°C, HPbCD 0 mg/mL) was 7.62. The “pH of Filtrate Day 3” value ([3]; 5°C, HPbCD 50 mg/mL) was 7.70, the “Solubility at Day 3” value ([3]; 5°C, HPbCD 50 mg/mL, phosphate buffer pH 7.6) was 9.32 mg/mL and the “pH of Filtrate Day 3” value ([3]; 5°C, HPbCD 100 mg/mL) was 7.80. The “Solubility at Day 3” value ([3]; 5°C, HPbCD 100 mg/mL, phosphate buffer pH 7.6) was 18.31 mg/mL, the “pH of Filtrate Day 3” value ([3]; 5°C, HPbCD 250 mg/mL) was 8.06 and the “Solubility at Day 3” value ([3]; 5°C, HPbCD 250 mg/mL, phosphate buffer pH 7.6) was 42.80 mg/mL. For the same compound, the “pH of Filtrate Day 3” value ([3]; 5°C, HPbCD 400 mg/mL) was 8.42, the “Solubility at Day 3” value ([3]; 5°C, HPbCD 400 mg/mL, phosphate buffer pH 7.6) was 66.89 mg/mL and the “pH of Filtrate Day 3” value ([3]; 15°C, HPbCD 0 mg/mL) was 7.59. The “pH of Filtrate Day 3” value ([3]; 15°C, HPbCD 50 mg/mL) was 7.77, the “Solubility at Day 3” value ([3]; 15°C, HPbCD 50 mg/mL, phosphate buffer pH 7.6) was 9.50 mg/mL and the “pH of Filtrate Day 3” value ([3]; 15°C, HPbCD 100 mg/mL) was 7.98. For the same compound, the “Solubility at Day 3” value ([3]; 15°C, HPbCD 100 mg/mL, phosphate buffer pH 7.6) was 18.51 mg/mL, the “pH of Filtrate Day 3” value ([3]; 15°C, HPbCD 250 mg/mL) was 8.07 and the “Solubility at Day 3” value ([3]; 15°C, HPbCD 250 mg/mL, phosphate buffer pH 7.6) was 43.79 mg/mL. For the same compound, the “pH of Filtrate Day 3” value ([3]; 15°C, HPbCD 400 mg/mL) was 8.26, the “Solubility at Day 3” value ([3]; 15°C, HPbCD 400 mg/mL, phosphate buffer pH 7.6) was 68.10 mg/mL and the “Solubility at Day 3” value ([3]; 25°C/60% RH, HPbCD 0 mg/mL, phosphate buffer pH 7.6, centrifuged sample) was 0.006^1 mg/mL. For the same compound, the “pH of Filtrate Day 3” value ([3]; 25°C/60% RH, HPbCD 50 mg/mL) was 7.65, the “Solubility at Day 3” value ([3]; 25°C/60% RH, HPbCD 50 mg/mL, phosphate buffer pH 7.6) was 9.90 mg/mL and the “Solubility at Day 3” value ([3]; 25°C/60% RH, HPbCD 100 mg/mL, phosphate buffer pH 7.6) was 18.33 mg/mL. The “pH of Filtrate Day 3” value ([3]; 25°C/60% RH, HPbCD 100 mg/mL, supernatant) was 7.672, the “Solubility at Day 3” value ([3]; 25°C/60% RH, HPbCD 250 mg/mL, phosphate buffer pH 7.6) was 42.37 mg/mL and the “Solubility at Day 3” value ([3]; 25°C/60% RH, HPbCD 400 mg/mL, phosphate buffer pH 7.6) was 70.80 mg/mL. The “pH of Filtrate Day 3” value ([3]; 25°C/60% RH, HPbCD 400 mg/mL, supernatant) was 8.342, the “temperature dependence of solubility in the presence of HPbCD” value ([3]; between 5°C and 25°C) was “not temperature dependent” and the “mice that had died” value (mice overdosed with APAP) was “one”.
